Laboratory results taken from patent US4391824A, “Ureylenebis (hydroxy naphthalenesulfonic acids)” (American Cyanamid Company, priority 1981, dated 1983).
Where “and” joins values, the source holds several entries; their conditions need not be identical. Equal values may be shown once. Where a name gives a salt, the structure may show the parent alone.

Key:
[1] = test system: corneal ulcerations; details: alkali burned rabbit, eye; cited from earlier work
[2] = test system: corneal ulceration; details: human; cited from earlier work
[3] = target: T1, human skin fibroblast collagenase (Homo sapiens, UniProt P03956); assay: Collagenase Assay, Test Code 006 (degradation of 14C-labeled native collagen fibrils); format: biochemical; details: 16 hours at 37° C., based on 0% value for enzyme control; for inhibition at 30 µg/mL / % Inhibition of Collagenase: test concentration 30 μg/ml
T1 construct: endogenous in cells; host or cells: human skin fibroblasts (from the enzyme's name; preparation not described)
T1 sequence (P03956 100-469): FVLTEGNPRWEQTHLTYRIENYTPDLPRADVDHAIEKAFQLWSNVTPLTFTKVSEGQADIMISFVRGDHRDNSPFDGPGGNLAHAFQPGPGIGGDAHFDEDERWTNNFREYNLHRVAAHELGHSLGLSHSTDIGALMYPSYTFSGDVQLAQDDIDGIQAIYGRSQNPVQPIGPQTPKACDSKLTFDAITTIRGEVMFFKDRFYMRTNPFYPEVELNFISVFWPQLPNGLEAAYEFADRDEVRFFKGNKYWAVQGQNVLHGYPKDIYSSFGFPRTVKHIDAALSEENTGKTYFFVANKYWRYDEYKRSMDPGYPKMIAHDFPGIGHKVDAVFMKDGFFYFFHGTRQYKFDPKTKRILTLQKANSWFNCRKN
Protocol: Collagenase assays were performed by a modification of the method of Harper, et. al., Biochem. 10: 3035 (1971). In a typical assay (total volume of 0.45 ml), 100 μl of the activated enzyme was added to the 14 C-labeled collagen fibrils (250 μl) followed by 100 μl of 50 mM cacodylate, pH 7.4, containing 5 mM calcium chloride. After incubation at 37° C. for 16 hours, the tubes were centrifuged in a Beckman microfuge for five minutes at full speed. An aliquot (200 μl) of the supernatant, representing collagenase digestion products of the fibril, was assayed for radioactivity. The effect of the test compound on collagen degradation by collagenase was examined as follows:
Varying concentrations of the test compound (in distilled water or dimethylacetamide) were added to the assay tubes containing active collagenase (total volume 450 μl) and after 16 hours the amount of radioactivity in the supernatant was determined. Appropriate blanks and trypsin controls were run in parallel.
The activities are expressed as % inhibition (lowering) of collagenase activity, i.e., based on the 0% value for the enzyme control.

[4] = test system: collagenase; details: collagenase, or a proteinase contaminant in the collagenase preparation; cited from earlier work

For `CC(=O)N[C@@H](CS)C(=O)O` [acetylcysteine], the frequency of ulceration [1] is listed as “reduce the frequency of ulceration” and the “effectiveness in treatment of acute and chronic corneal ulceration” value [2] is listed as “effective”.
`O=C(Nc1cccc(C(=O)Nc2cc3c(O)cc(S(=O)(=O)O)cc3cc2S(=O)(=O)O)c1)Nc1cccc(C(=O)Nc2cc3c(O)cc(S(=O)(=O)O)cc3cc2S(=O)(=O)O)c1` [3,3'-[Ureylenebis(m-phenylenecarbonylimino)]bis[5-hydroxy-2,7-naphthalenedisulfonic acid]tetrasodium salt] gave an inhibition at 30 µg/mL [3] of 41%.
For `Cc1ccc(C(=O)Nc2ccc(S(=O)(=O)O)c3cc(S(=O)(=O)O)cc(S(=O)(=O)O)c23)cc1NC(=O)c1cccc(NC(=O)Nc2cccc(C(=O)Nc3cc(C(=O)Nc4ccc(S(=O)(=O)O)c5cc(S(=O)(=O)O)cc(S(=O)(=O)O)c45)ccc3C)c2)c1` [Suramin], the “inhibition of the activity of collagenase” value [4] is given as “not inhibiting the action of collagenase”.
For `Cc1ccc(NC(=O)Nc2ccc(C)c(C(=O)Nc3cc(S(=O)(=O)O)cc4cc(S(=O)(=O)O)cc(O)c34)c2)cc1C(=O)Nc1cc(S(=O)(=O)O)cc2cc(S(=O)(=O)O)cc(O)c12` [4,4'-[Ureylenebis(6-methyl-3,1-phenylenecarbonylimino)]bis[5-hydroxy-2,7-naphthalenedisulfonic acid]tetrasodium salt], the “% Inhibition of Collagenase” value [3] was 36% and 35%, the inhibition at 30 µg/mL [3] was 50% and the inhibition at 60 µg/mL ([3]; test concentration 60 μg/ml) was 39%.
In the case of `O=C([O-])CN(CCN(CC(=O)[O-])CC(=O)[O-])CC(=O)[O-].[Ca+2].[Ca+2]` [Calcium ethylenediaminetetraacetate], the frequency of ulceration [1] is listed as “reduce the frequency of ulceration”.
For `N[C@@H](CS)C(=O)O` [cysteine], the “effectiveness in treatment of acute and chronic corneal ulceration” value [2] is listed as “effective”.
`Cc1cc(C(=O)Nc2cc(S(=O)(=O)O)cc3cc(S(=O)(=O)O)cc(O)c23)ccc1NC(=O)Nc1ccc(C(=O)Nc2cc(S(=O)(=O)O)cc3cc(S(=O)(=O)O)cc(O)c23)cc1C` [4,4'-[Ureylenebis(3-methyl-p-phenylenecarbonylimino)]bis[5-hydroxy-2,7-naphthalenedisulfonic acid]tetrasodium salt] gave an inhibition at 30 µg/mL [3] of 78%.
`O=C(Nc1cccc(C(=O)Nc2cc(S(=O)(=O)O)cc3cc(S(=O)(=O)O)cc(O)c23)c1)Nc1cccc(C(=O)Nc2cc(S(=O)(=O)O)cc3cc(S(=O)(=O)O)cc(O)c23)c1` [4,4'[Ureylenebis(m-phenylenecarbonylimino)]bis[5-hydroxy-2,7-naphthalenedisulfonic acid]tetrasodium salt] showed an inhibition at 30 µg/mL [3] of 41%.
In the case of `O=C(Nc1ccc(C(=O)Nc2cccc3cc(S(=O)(=O)O)cc(O)c23)c(S(=O)(=O)O)c1)Nc1ccc(C(=O)Nc2cccc3cc(S(=O)(=O)O)cc(O)c23)c(S(=O)(=O)O)c1` [5,5'-[Ureylenebis(2-sulfo-4,1-phenylenecarbonylimino)]bis[4-hydroxy-2-naphthalenesulfonic acid]tetrasodium salt], the inhibition at 30 µg/mL [3] is reported as 58%.
For `Cc1cc(-c2ccc(/N=N/c3c(S(=O)(=O)O)cc4cc(S(=O)(=O)O)cc(N)c4c3O)c(C)c2)ccc1/N=N/c1c(S(=O)(=O)O)cc2cc(S(=O)(=O)O)cc(N)c2c1O` [trypan blue], the “inhibition of the activity of collagenase” value [4] is given as “inhibiting the activity of collagenase”.
With `Cc1c(NC(=O)Nc2cccc(C(=O)Nc3cc(S(=O)(=O)O)cc4cc(S(=O)(=O)O)cc(O)c34)c2C)cccc1C(=O)Nc1cc(S(=O)(=O)O)cc2cc(S(=O)(=O)O)cc(O)c12` [4,4'-[Ureylenebis(2-methyl-3,1-phenylenecarbonylimino)]bis[5-hydroxy-2,7-naphthalenedisulfonic acid]tetrasodium salt] the “% Inhibition of Collagenase” value [3] was 45% and the inhibition at 30 µg/mL [3] was 32.2%.
